Assay results: ChEMBL document CHEMBL1136873, “Application of combinatorial biocatalysis for a unique ring expansion of dihydroxymethylzearalenone” (Bioorg Med Chem Lett, 2009)
Activity calls are given as the source filed them. The calls are words filed in the database; no cut-off is given here.

What was measured:
[1] = biological target: T1, Tyrosine-protein kinase Lck (Homo sapiens, UniProt P06239); experiment: Inhibition of LCK at 10 uM
Target sequence in this assay (P06239 2-509 limits assumed): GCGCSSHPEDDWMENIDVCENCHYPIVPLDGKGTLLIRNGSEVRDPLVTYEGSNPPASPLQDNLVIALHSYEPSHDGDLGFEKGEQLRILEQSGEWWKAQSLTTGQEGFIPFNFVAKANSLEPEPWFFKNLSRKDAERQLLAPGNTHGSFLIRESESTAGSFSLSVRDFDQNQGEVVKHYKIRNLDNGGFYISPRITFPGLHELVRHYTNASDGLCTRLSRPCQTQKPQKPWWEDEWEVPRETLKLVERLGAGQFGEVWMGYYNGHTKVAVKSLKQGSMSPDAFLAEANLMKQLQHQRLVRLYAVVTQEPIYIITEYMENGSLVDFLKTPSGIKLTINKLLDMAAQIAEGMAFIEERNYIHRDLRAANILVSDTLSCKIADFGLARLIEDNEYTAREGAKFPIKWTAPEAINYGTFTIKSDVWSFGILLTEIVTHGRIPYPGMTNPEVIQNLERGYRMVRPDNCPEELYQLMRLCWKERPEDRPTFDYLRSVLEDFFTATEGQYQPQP

[2] = biological target: T1, Tyrosine-protein kinase Lck
Target sequence in this assay (P06239 whole entry): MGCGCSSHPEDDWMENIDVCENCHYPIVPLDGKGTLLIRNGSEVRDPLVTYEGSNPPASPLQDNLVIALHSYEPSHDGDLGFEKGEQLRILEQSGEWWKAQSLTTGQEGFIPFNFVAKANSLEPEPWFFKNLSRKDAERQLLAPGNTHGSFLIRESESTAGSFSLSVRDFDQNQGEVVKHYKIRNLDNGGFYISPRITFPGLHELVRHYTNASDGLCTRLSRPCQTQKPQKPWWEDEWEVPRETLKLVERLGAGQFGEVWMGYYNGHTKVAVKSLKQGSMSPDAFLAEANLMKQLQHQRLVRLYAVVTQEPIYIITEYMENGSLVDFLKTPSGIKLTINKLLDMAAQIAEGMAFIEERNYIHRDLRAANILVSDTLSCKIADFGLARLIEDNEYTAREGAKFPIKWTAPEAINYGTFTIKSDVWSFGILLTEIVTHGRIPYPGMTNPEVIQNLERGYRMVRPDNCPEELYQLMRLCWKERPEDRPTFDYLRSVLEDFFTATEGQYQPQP

[3] = Inhibition of MAPK

In the case of COc1cc(O)c2c(c1)/C=C/CC(=O)NCCCOCCCNC(=O)CCC[C@H](C)OC2=O, the Activity [1] is reported as “inactive”.
For COc1cc(O)c2c(c1)/C=C/CC(=O)OCCCC(c1ccccc1)(C(O)c1ccccc1)CCCOC(=O)CCC[C@H](C)OC2=O (stereo not given in full), the Activity [1] was “inactive”.
For COc1cc(O)c2c(c1)/C=C/CC(=O)NCCCOCCCCOCCCNC(=O)CCC[C@H](C)OC2=O, the Activity [1] was “inactive”.
For COc1cc(O)c2c(c1)/C=C/CC(=O)OCCCC(c1ccccc1)(C(C)O)CCCOC(=O)CCC[C@H](C)OC2=O (stereo not given in full), the Activity [1] was “inactive”.
For COc1cc(O)c2c(c1)/C=C/CC(=O)OCCCCOC(=O)CCC[C@H](C)OC2=O, the Activity [1] was “inactive”.
For COc1cc(O)c2c(c1)/C=C/CC(=O)OCCC1(CCCCC1)CCOC(=O)CCC[C@H](C)OC2=O, the Activity [1] was “inactive”.
In the case of COc1cc(O)c2c(c1)/C=C/CC(=O)OCCOCC#CCOCCOC(=O)CCC[C@H](C)OC2=O, the Activity [1] is reported as “inactive”.
With COc1cc(O)c2c(c1)/C=C/CC(=O)NCCCCCCCNC(=O)CCC[C@H](C)OC2=O the Activity [1] was “inactive”.
For COc1cc(O)c2c(c1)CCCC(O)[C@H](O)C(=O)/C=C\C[C@H](C)OC2=O (single isomer, unassigned), the IC50 [2] was 750 nM and the IC50 [3] was 4 nM.
COc1cc(O)c2c(c1)/C=C/C[C@@H](O)[C@H](O)C(=O)CCC[C@H](C)OC2=O [DIHYDROXYMETHYLZEARALENONE] gave an IC50 [2] of 200 nM.
For COc1cc(O)c2c(c1)/C=C/CC(=O)NCCCCNC(=O)CCC[C@H](C)OC2=O, the Activity [1] was “inactive”.
In the case of COc1cc(O)c2c(c1)/C=C/CC(=O)OCCOC(=O)CCC[C@H](C)OC2=O, the Activity [1] is reported as “inactive”.
In the case of COc1cc(O)c2c(c1)/C=C/CC(=O)OC/C=C\COC(=O)CCC[C@H](C)OC2=O, the Activity [1] is reported as “inactive”.
With COc1cc(O)c2c(c1)/C=C/CC(=O)OCCCCCCCCOC(=O)CCC[C@H](C)OC2=O the Activity [1] was “inactive”.
In the case of COc1cc(O)c2c(c1)/C=C/CC(=O)OCc1cccc(c1)COC(=O)CCC[C@H](C)OC2=O, the Activity [1] is reported as “inactive”.
With COc1cc(O)c2c(c1)/C=C/CC(=O)OC/C=C(\C)CC/C=C(\C)COC(=O)CCC[C@H](C)OC2=O the Activity [1] was “inactive”.
For COc1cc(O)c2c(c1)/C=C/CC(=O)NCCCN(C)CCCNC(=O)CCC[C@H](C)OC2=O, the Activity [1] was “inactive”.
For COc1cc(O)c2c(c1)/C=C/CC(=O)OCCCOCCCOC(=O)CCC[C@H](C)OC2=O, the Activity [1] was “inactive”.
In the case of COc1cc(O)c2c(c1)/C=C/CC(=O)OCCCCCCOC(=O)CCC[C@H](C)OC2=O, the Activity [1] is reported as “inactive”.
